Assay results as given in patent US6509377B1, “Use of a 2-hydroxy-4-trifluoromethylbenzoic acid derivatives as inhibitors of the activation of the nuclear transcription factor NF-κB” (J. Uriach & Cia, S.A., priority 1999, dated 2003).

Legend:
[1] = Cell viability of 143.98.2 cells (EZ4U); format: cell-based; conditions: human, read-out: Percentage of cell viability
Method: (§1) Several cell lines obtained from the American Type Culture Collection (ATCC) were cultured at 37° C. and under a 5% CO2 atmosphere. Each cell line was grown in an appropriate culture medium and within the exponential phase (Table I).
(§2) For the cell viability studies 24-well plates were used, where 0.5×10^6 cells/ml (for 24-hour studies), 0.25×10^6 cells/ml (for 48-hour studies) or 0.125×10^6 cells/ml (for 72-hour studies) were incubated. Next, different concentrations of HTB (1-3 mM) were added and cells were incubated for different time periods (37° C., 5% CO2). After incubation, the supernatant from each well was extracted, and cells were washed with culture medium without fetal calf serum. Then, the supernatant was extracted and 200 μl culture medium without fetal calf serum were added to each well. In addition, 20 μl substrate were added to determine cell viability. This method is based on the ability of viable cells to transform the colourless substrate into a coloured substance that is excreted to the supernatant (EZ4U, Biomedica Gmbh.). After incubating cells for 1 hour at 37° C. and 5% CO2, 200 μl supernatant were collected and the absorbance was measured at 450 nm.
(§3) The absorbance was also determined at 620 nm as a measure of the existing non-specific value.

[2] = Cell viability of U-937 cells (EZ4U); format: cell-based; conditions: human, U-937 histiocytic lymphoma cells, read-out: Percentage of cell viability
Method: as §1, §2, §3

COX-2 [3] = assay: COX-2 expression in rat inflammatory exudate cells (carrageenan air pouch); format: in vivo; conditions: oral 3-30 mg/kg, 6 h
Method: (§4) Lewis rats (175-200 g) were used in this study. Rats were randomly distributed in groups of 5 animals. An, air pouch was produced by subcutaneous injection of 20 ml of sterile air into the intrascapular area of animals in each group. Every two days, 10 ml of air were injected again into the cavity to keep the space open. Seven days after the first injection of air, 2 ml of a 1% carrageenan solution was injected into the air pouch in all groups to produce an inflammatory reaction. Test compound was administered orally 30 min before carrageenan administration. The animals were killed 6 h later and the volume of exudate was measured. The type and number of cells present were determined using standard Wright-Giemsa staining and a Coulter Counter cell counter, respectively. The exudate was centrifuged at 400 g at 4° C. for 7 min and PGE2 concentration was determined by enzyme-immunoassay (Amershan-Biotrak RPN222). The cell pellet was resuspended in 2 ml cold 0.85% NaCl. To eliminate red cell contamination, cells were subjected to a selective cellular lysis by the addition of 6 ml cold water for 20 seconds. The isotonicity of the cellular suspension was restored by the addition of 2 ml 3.5% NaCl. […]

COX-2 [4] = assay: PGE2 production in rat exudate (carrageenan air pouch); format: in vivo; conditions: oral 3-30 mg/kg, 6 h
Method: as §4

O=C(O)c1ccc(C(F)(F)F)cc1O [HTB, 2-hydroxy-4-trifluoromethylbenzoic acid]
viability at 0 h, 1 mM ([1]; 143.98.2 cells (osteosarcoma), 1 mM HTB, 0 hours): 100%
viability at 2 h, 1 mM ([1]; 143.98.2 cells (osteosarcoma), 1 mM HTB, 2 hours): 100%
viability at 5 h, 1 mM ([1]; 143.98.2 cells (osteosarcoma), 1 mM HTB, 5 hours): 100%
viability at 24 h, 1 mM ([1]; 143.98.2 cells (osteosarcoma), 1 mM HTB, 24 hours): 93.9%
viability at 48 h, 1 mM ([1]; 143.98.2 cells (osteosarcoma), 1 mM HTB, 48 hours): 83.2%
viability at 72 h, 1 mM ([1]; 143.98.2 cells (osteosarcoma), 1 mM HTB, 72 hours): 50.4%
viability at 0 h, 3 mM ([1]; 143.98.2 cells (osteosarcoma), 3 mM HTB, 0 hours): 100%
viability at 2 h, 3 mM ([1]; 143.98.2 osteosarcoma cells, 3 mM HTB, 2 hours): 98.1%
viability at 5 h, 3 mM ([1]; 143.98.2 osteosarcoma cells, 3 mM HTB, 5 hours): 82.7%
viability at 24 h, 3 mM ([1]; 143.98.2 osteosarcoma cells, 3 mM HTB, 24 hours): 52.2%
viability at 48 h, 3 mM ([1]; 143.98.2 osteosarcoma cells, 3 mM HTB, 48 hours): 16.1%
viability at 0 h, 1 mM ([2]; 1 mM HTB, 0 hours): 100%
viability at 2 h, 1 mM ([2]; 1 mM HTB, 2 hours): 100%
viability at 5 h, 1 mM ([2]; 1 mM HTB, 5 hours): 98.8%
viability at 24 h, 1 mM ([2]; 1 mM HTB, 24 hours): 74.4%
viability at 48 h, 1 mM ([2]; 1 mM HTB, 48 hours): 39.6%
viability at 72 h, 1 mM ([2]; 1 mM HTB, 72 hours): 4.8%
viability at 0 h, 3 mM ([2]; 3 mM HTB, 0 hours): 100%
viability at 2 h, 3 mM ([2]; 3 mM HTB, 2 hours): 96.1%
viability at 5 h, 3 mM ([2]; 3 mM HTB, 5 hours): 92.6%
viability at 24 h, 3 mM ([2]; 3 mM HTB, 24 hours): 13.9%
viability at 48 h, 3 mM ([2]; 3 mM HTB, 48 hours): 7.5%

CC(=O)Oc1cc(C(F)(F)F)ccc1C(=O)O [triflusal, 2-Acetyloxy-4-trifluoromethylbenzoic acid, reference compound]
inhibition of COX-2 expression in the cells present in the exudate (COX-2 [3]): dose-dependently inhibits
inhibition of PGE2 production in the exudate (COX-2 [4]): dose-dependently inhibits
